# Measurements taken from patent US20240277737A1, “METHOD FOR GENERATING DRY POWDER SUITABLE FOR INHALATION ADMINISTRATION OF ANTIMICROBIAL PHOSPHOLIPID COMPOSITIONS” (Celestial Therapeutics, Inc., priority 2021, published 2024).
# What was measured:
# [1] = system: Toll-like receptor 4 (TLR4) interacting proteins CD14 and MD-2; details: cited from earlier work
# [2] = system: Respiratory Syncytial Virus (RSV); details: bronchial epithelial cells; cited from earlier work
# [3] = solubility screening for API spray drying (organic solvents); type: physicochemical
# Experimental: The solubility of the surfactant was investigated to identify a suitable solvent system in which the surfactants can be solubilized to process the material by spray drying.
# The class III solvents were preferred to the class II solvents because the […] and of lower risk to human health. The solubility of the POPG using class III solvent was lower than 0.5 mg/mL. For this reason, Class II solvents were investigated. The highest solubility was obtained with a mixture DCM/Methanol 5:1 v/v and it will be used as a vehicle for the spray drying process.
# [4] = particle size distribution by Sympatec laser particle sizer (RODOS/ASPIROS, 3 bar); type: physicochemical; details: raw material, R5 lens
# Experimental: The Particle Size Distribution analysis was performed at 3 bar dispersion pressure using a Sympatec laser Particle Sizer equipped with RODOS/ASPIROS dispersion unit and an R5 lens.
# The particle size analysis of the spray dried powders was performed at 3 bar dispersion pressure using a Sympatec laser Particle Sizer equipped with RODOS/ASPIROS dispersion unit and an R3 lens (n=2) and is summarised in Table 13 and in FIG. 19-FIG. 21. The PSD of spray dried powders decreased with increasing atomisation pressure and reducing outlet temperature during the spray drying manufacture.
# The PSD analysis performed on 174 #003A-01 & 174 #003B-01 following storage at −20° C. was repeat-ed.
# The spray dried product 174 #005A-01 was vacuum dried for 24 hours at 25° C. with a maximum pressure ˜0.1 mbar. After the 24 hours, the PSD of this product was evaluated. Post vacuum drying, increased amounts of aggregated material were observed and as a result the Dv90 increased.
# Based on the PSD results after the storage, an aliquot of the formulation 174 #005A-01, that was stored at −20° C. for 4 weeks, was taken out from the freezer, transferred in sealed container and equilibrated for 5 hours at ambient temperature (20 C-25 C, <30% RH) in a sealed vial.
# The 174 #010A-01 post vacuum drying was separated in different aliquot and stored at 2-8° C. and at −20° C. The PSD and DSC of the spray dried powder was evaluated through time. The spray dried powder was removed from the storage condition an equilibrated at low RH for 5 hours (19° C. and 28% RH) before to perform any test. […]
# The particle size distribution of the micronized sample was determined by laser particle size analysis using an R1 (0.1-35.0 μm range) & R3 lens (0.5-175.0 μm range) at 3 bar dispersal pressure at T-0 and after T=7 days after storage of the sample at −20° C. […] There was a slight discrepancy between the two lenses, with the trace of the material measured using the R1 lens appearing larger and very slightly bimodal which wasn't apparent in the trace measured using an R3 lens. […]
smiles,measurement,setting,value
"CCCCCCCC/C=C\CCCCCCCC(=O)O[C@H](COC(=O)CCCCCCCCCCCCCCC)COP(=O)(O)OCC(O)CO (mixture of isomers) [POPG, 1-Palmitoy-2-loleoyl-sn-glycerol-3-phospho-(1′-rac-glycerol)]",inflammatory responses induced by lipopolysaccharide,[1],markedly attenuate
same,cytopathic effects induced by RSV,[2],significantly inhibited
same,interleukin-6 production,[2],significantly inhibited
same,interleukin-8 production,[2],significantly inhibited
same,Solubility,[3]; Acetone,<500 µg/mL
same,Solubility,[3]; Chloroform,16700 µg/mL
same,Solubility,[3]; Cycloexhane,<500 µg/mL
same,Solubility,[3]; DCM/ Methanol 5:1 v/v,~70000 µg/mL
same,Solubility,[3]; Dichloromethane (DCM),<500 µg/mL
same,Solubility,[3]; Dimethyl sulfoxide (DMSO),500 µg/mL
same,Solubility,[3]; Dimethylformamide (DMF),<500 µg/mL
same,Solubility,[3]; Ethanol (96%),500 µg/mL
same,Solubility,[3]; Ethyl Acetate,<500 µg/mL
same,Solubility,[3]; Heptane,<500 µg/mL
same,Solubility,[3]; Isopropanol (IPA),<500 µg/mL
same,Solubility,[3]; Methanol,1350 µg/mL
same,Solubility,[3]; class III solvent,lower than 0.5 mg/mL
same,VMD,[4],59.05 ± 13.17 μm
same,X10,[4],1.80 ± 0.07 μm
same,X50,[4],12.65 ± 4.65 μm
